# From US10792249B2, “High drug loading pharmaceutical compositions” (AcrysPharm LLC, priority 2017, dated 2020)
# Assay: Preliminary screening of ibuprofen solubility in HPMC
# Format: physicochemical
# Settings: 0.5 part ibuprofen in 1 part HPMC w/w
# Source text: As listed in Table 4, […] process, which is a common procedure to generate glass-solution solid dispersion (Newman, ‘Pharmaceutical Amorphous Solid Dispersions’, Wiley (2015)). […] Therefore, these dispersions exceed the solubility limit of ibuprofen in HPMC.
structure (smiles),measurement,value
CC(C)Cc1ccc(C(C)C(=O)O)cc1 (racemic) [ibuprofen],solubility of ibuprofen in HPMC,about 50 wt % of HPMC
